Data set [1] has as its system obsessive-compulsive disorder with prevailing anxiety disorders. Description: Study versus Diazepam in obsessive-compulsive disorder (HAM-A, STAI, SAN). The format is in vivo, human. The method, then: A study was conducted to examine the efficacy of the claimed drug, formulated as a water solution (liquid dosage form) of the activated (potentized) energy-treated carrier, obtained by multiple consecutive dilution of the initial matrix solution in an aqueous-alcoholic diluent, combined with external mechanical impact—shaking of each resulting dilution, to a degree of 100^200, equivalent to a centesimal (C200) homeopathic dilution (wherein the energy treatment of the initial neutral carrier has been accomplished by exposing it to an electric current caused by a difference of potentials being applied to electrodes placed in the initial liquid carrier and which is proportional in amplitude to an amplified combined, summed signal, formed by summing the resultant signals—biopotential differences of individual referential derivations recorded in five healthy donors using the internationally recognized 10-20 system, which involves 19 active recording electrodes placed in regular positions all over the scalp and one reference electrode located on the ear-lobe)—further referred to as AP drug—in treating obsessive-compulsive disorder.
The tolerability and anxiolytic efficacy of AP drug was examined versus Diazepam in patients with obsessive-compulsive disorder with prevailing anxiety disorders. Inclusion criteria: • 1. Subjects aged from 18 to 65 years. • 2. Subjects meeting the obsessive-compulsive disorder criteria (ICD-10 code F42). • 3. Subjects receiving no treatment with psychoactive agents at least for a week before and at the time of the trial.
The study included 20 patients (8 men and 12 women) aged between 19 and 62 years old. The mean patient age and mean duration of disease were 38.0±1.6 years and 2.1±0.5 years, respectively.
The duration of treatment was […]. The patients randomized to AP drug (45) received it at a dose of 20 drops 4 times daily; the rest 35 patients were assigned to receive Diazepam at 15 mg daily.
The patients were assessed for OCD symptom severity at baseline (day 0) and at days 7, 14, and 28.

Data set [2] concerns depression in patients with post-traumatic stress disorders. Nature of the data set: Comparative trial versus Heptral in stress-related depression (HAM-D, HADS, CGI). The format is in vivo, human. Set-up: CGI Efficacy Index / CGI Severity scale total score / CGI Improvement scale total score: scale not given here. As to the method:
A randomized, […] study was conducted to examine the efficacy and safety of the claimed drug, formulated as a solid dosage form containing lactose granules impregnated with water-alcohol solution of the liquid activated (potentized) energy-treated carrier, obtained by multiple consecutive dilution of the initial matrix solution in an aqueous-alcoholic diluent, combined with external mechanical impact—shaking of each resulting dilution, to a degree of 100^200, equivalent to a centesimal (C200) homeopathic dilution (wherein the energy treatment of the initial liquid carrier has been accomplished by exposing it to an electric current caused by a difference of potentials being applied to electrodes placed in the initial liquid carrier and which is proportional in amplitude to an amplified combined, summed signal, formed by summing the resultant signals—biopotential differences of individual referential derivations recorded in five healthy donors using the internationally recognized 10-20 system, which involves 19 active recording electrodes placed in regular positions all over the scalp and one reference electrode located on the ear-lobe)—further referred to as AP drug, where it was used for treating depression in patients with post-traumatic stress disorders.
AP drug was administered to manage the depressive symptoms—in parallel to Heptral (adametionine), used as a comparator in efficacy assessment. AP drug was administered for 4 weeks at a dose of 2 tablets 4 times daily. Heptral was used at 400 mg 3 times (1200 mg) daily.
An open comparative clinical trial was performed which involved 30 patients (16 men and 14 women) assigned to two parallel groups: 15 patients in the group of AP drug and 15 in the heptral group. The mean age of participants assigned to AP drug was 38.0±4.39 years;
The period of study participation was 8 weeks (the total treatment duration of 4 weeks and 4 weeks of follow-up).
Neither of the patient groups was allowed to take psychoactive medications during the study. The drugs not prohibited for use during the treatment were medications for the underlying traumatic illness and co-existing somatic disorders. The study enrolled inpatients aged from 18 to 65 years old, who had been receiving medical attention for bodily injuries resulting from car accidents, which had taken place under circumstances threatening the life or welfare of the patient or/and their friends or family members suffering from anxiety mental disorders, such as (defined by the ICD-10) reaction to severe stress, and adjustment disorders (F43); adjustment disorders (F43.2); adjustment disorder with mixed anxiety and depressed mood (F43.23).
1. Reduced severity of depressive symptoms and signs as measured by the HADS. 2. Reduced severity of depressive symptoms and signs as measured by the HAM-D 3. Efficacy Index assessment on the Clinical Global Impression (CGI) scale.
The patients' mental health was examined at baseline—at admission to the clinic, following 1, 2 and 4 weeks of treatment, and 4 weeks after treatment discontinuation (follow-up).
The effect of study treatment was evaluated according to changes in the total HAM-D score and scoring outcomes on the HADS anxiety and depression subscales. In addition, the Clinical Global Impression scale was administered to primarily estimate the Efficacy Index for the treatment conducted.

In turn, `CN1C(=O)CN=C(c2ccccc2)c2cc(Cl)ccc21` [Diazepam] yielded an HAM-A scores in data set [1] (Day 7) of 19.02. This molecule had an HAM-A scores in data set [1] (Day 14) of 12.93. In addition, in data set [1] (at 28 days), the “Average reduction of HAM-A scores” value was 70.2%; the “Percentage of patients exhibiting treatment response (50% reduction of mean HAM-A score and over)” value came out at 100%. Besides, the “Mean SAN score” value in data set [1] (at treatment completion) is 3.6. In addition, the “Occurrence of adverse reactions” value in data set [1] (throughout the study) is 82.9%. In data set [1] (treatment completion), the “Reduction in trait anxiety scores (STAI)” value was 22.3% and the “Reduction of situational anxiety (STAI) scores” value is given as 29.6%.
With `C[S+](CC[C@H](N)C(=O)[O-])C[C@H]1O[C@@H](n2cnc3c(N)ncnc32)[C@H](O)[C@@H]1O` (stereo partly shown) [Heptral, adametionine], the “CGI Severity scale total score” value in data set [2] (Visit 1 (baseline)) is 3.8 ± 0.17. In data set [2] (Visit 1 (baseline), n = 15), the “Total HADS depression score” value amounted to 17.5 and the “Total HAM-D score” value was found to be 26.2. For the same molecule, in data set [2] (Visit 2 (week 1)), the “CGI Efficacy Index” value was found to be 1.1 ± 0.08, the “CGI Improvement scale total score” value amounted to 2.9 ± 0.07, the “CGI Severity scale total score” value is 2.9 ± 0.12 and the “Total HADS depression score” value is 13.2. For the same molecule, the “Total HAM-D score” value in data set [2] (Visit 2 (week 1)) is 23.1. For the same molecule, in data set [2] (Visit 3 (week 2)), the “CGI Efficacy Index” value was 1.8 ± 0.19, the “CGI Improvement scale total score” value stood at 2.1 ± 0.15, the “CGI Severity scale total score” value stood at 1.9 ± 0.12 and the “Total HADS depression score” value amounted to 9.6. Moreover, the “Total HAM-D score” value in data set [2] (Visit 3 (week 2)) is 15.6. In addition, in data set [2] (Visit 4 (week 4)), the “CGI Efficacy Index” value stood at 2.3 ± 0.18, the “CGI Improvement scale total score” value is on record as 1.2 ± 0.11, the “CGI Severity scale total score” value is given as 1.1 ± 0.07 and the “Total HADS depression score” value amounted to 6.5. The “Total HAM-D score” value in data set [2] (Visit 4 (week 4)) is given as 14.1. In data set [2] (Visit 5 (follow-up)), the “CGI Efficacy Index” value was found to be 2.3 ± 0.18, the “CGI Improvement scale total score” value is recorded as 1.1 ± 0.07, the “CGI Severity scale total score” value was 1.0 ± 0.00 and the “Total HADS depression score” value is on record as 3.5. The “Total HAM-D score” value in data set [2] (Visit 5 (follow-up)) is reported as 12.1. For the same molecule, in data set [2] (group of 15), the “Adverse event anxiety worsening” value worked out at 2 patients, the Adverse event dizziness was 5 patients and the Adverse event headache is given as 3 patients.

The values above are taken from patent US20170333560A1, “Pharmaceutical Composition That Includes A Neutral Carrier Treated With Energy And Related Methods Of Treatment” (priority 2016, published 2017).
